Experiments:
Format in all cases: functional, cell-based
Cannabinoid receptor 2 [1] = biological target: T1, Cannabinoid receptor 2 (Homo sapiens, UniProt P34972); assay: Agonist activity at human CB2 receptor stably transfected in AtT20 cells incubated for 60 mins by FLIPR membrane potential assay
Cannabinoid receptor 1 [2] = biological target: T2, Cannabinoid receptor 1 (Homo sapiens, UniProt P21554); assay: Agonist activity at human CB1 receptor stably transfected in AtT20 cells assessed as maximal efficacy at 30 uM incubated for 60 mins by FLIPR membrane potential assay relative to control; conditions: filed as agonist
T2 sequence (P21554 whole entry): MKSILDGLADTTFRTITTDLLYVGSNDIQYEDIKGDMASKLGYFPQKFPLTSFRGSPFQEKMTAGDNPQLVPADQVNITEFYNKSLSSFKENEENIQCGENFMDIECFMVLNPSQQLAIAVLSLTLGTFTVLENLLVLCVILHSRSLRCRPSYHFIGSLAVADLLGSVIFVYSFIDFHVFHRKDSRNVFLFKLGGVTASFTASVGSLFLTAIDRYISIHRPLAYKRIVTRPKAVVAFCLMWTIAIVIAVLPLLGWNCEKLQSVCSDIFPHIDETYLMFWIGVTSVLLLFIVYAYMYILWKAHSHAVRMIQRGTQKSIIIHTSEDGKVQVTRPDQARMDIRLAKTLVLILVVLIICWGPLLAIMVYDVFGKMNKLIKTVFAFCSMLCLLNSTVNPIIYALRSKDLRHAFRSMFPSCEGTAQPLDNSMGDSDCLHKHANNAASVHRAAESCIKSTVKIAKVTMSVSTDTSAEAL

Cannabinoid receptor 1 [3] = biological target: T2, Cannabinoid receptor 1; assay: Agonist activity at human CB1 receptor stably transfected in AtT20 cells incubated for 60 mins by FLIPR membrane potential assay
Cannabinoid receptor 2 [4] = biological target: T1, Cannabinoid receptor 2; assay: Agonist activity at human CB2 receptor stably transfected in AtT20 cells assessed as maximal efficacy at 30 uM incubated for 60 mins by FLIPR membrane potential assay relative to control; conditions: filed as agonist
Cannabinoid receptor 1 [5] = biological target: T2, Cannabinoid receptor 1; assay: Agonist activity at human CB1 receptor stably transfected in AtT20 cells assessed as maximal efficacy at 10 uM incubated for 60 mins by FLIPR membrane potential assay relative to control
Cannabinoid receptor 2 [6] = biological target: T1, Cannabinoid receptor 2; assay: Agonist activity at human CB2 receptor stably transfected in AtT20 cells assessed as maximal efficacy at 10 uM incubated for 60 mins by FLIPR membrane potential assay relative to control
Cannabinoid receptor 2 [7] = biological target: T1, Cannabinoid receptor 2; assay: Agonist activity at HA-tagged human CB2 receptor stably transfected in AtT20 cells incubated for 60 mins by FLIPR membrane potential assay
Cannabinoid receptor 1 [8] = biological target: T2, Cannabinoid receptor 1; assay: Agonist activity at HA-tagged human CB1 receptor stably transfected in AtT20 cells incubated for 60 mins by FLIPR membrane potential assay
Cannabinoid receptor 2 [9] = biological target: T1, Cannabinoid receptor 2; assay: Agonist activity at HA-tagged human CB2 receptor stably transfected in AtT20 cells assessed as maximal efficacy at 30 uM incubated for 60 mins by FLIPR membrane potential assay relative to control; conditions: filed as agonist
Cannabinoid receptor 1 [10] = biological target: T2, Cannabinoid receptor 1; assay: Agonist activity at HA-tagged human CB1 receptor stably transfected in AtT20 cells assessed as maximal efficacy at 30 uM incubated for 60 mins by FLIPR membrane potential assay relative to control; conditions: filed as agonist

T1 sequence (P34972 whole entry): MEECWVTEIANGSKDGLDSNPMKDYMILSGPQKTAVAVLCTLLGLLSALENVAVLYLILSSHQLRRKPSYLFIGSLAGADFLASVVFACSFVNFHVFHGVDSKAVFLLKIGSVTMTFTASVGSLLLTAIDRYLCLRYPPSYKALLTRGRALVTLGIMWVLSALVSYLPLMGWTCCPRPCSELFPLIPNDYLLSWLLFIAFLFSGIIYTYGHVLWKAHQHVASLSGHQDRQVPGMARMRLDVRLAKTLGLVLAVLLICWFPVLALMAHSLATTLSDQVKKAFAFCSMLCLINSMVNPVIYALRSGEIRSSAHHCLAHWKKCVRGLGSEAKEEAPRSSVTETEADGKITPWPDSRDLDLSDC

| SMILES | EC50 (Cannabinoid receptor 2 [1]) | Emax (Cannabinoid receptor 1 [2]) | EC50 (Cannabinoid receptor 1 [3]; read-out: EC50) | Emax (Cannabinoid receptor 2 [4]) | other results |
| --- | --- | --- | --- | --- | --- |
| COC(=O)[C@H](Cc1ccc(O)cc1)NC(=O)c1cn(CCCCCF)c2ccccc12 | 87.7 nM | 135% | 182 nM | 98% | – |
| COC(=O)[C@@H](CO)NC(=O)c1cn(CCCCCF)c2ccccc12 | – | – | – | – | Emax (Cannabinoid receptor 1 [5]; filed as agonist): 66%; Emax (Cannabinoid receptor 2 [6]; filed as agonist): 46% |
| COC(=O)[C@H](CO)NC(=O)c1cn(CCCCCF)c2ccccc12 | 625 nM | 123% | 200 nM | 41% | – |
| CC[C@H](C)[C@H](NC(=O)c1cn(CCCCCF)c2ccccc12)C(=O)OC | 19.2 nM | 145% | 27.6 nM | 124% | – |
| COC(=O)[C@@H](NC(=O)c1cn(CCCCCF)c2ccccc12)C(C)(C)C | – | – | – | – | EC50 (Cannabinoid receptor 2 [7]): 7.4 nM; EC50 (Cannabinoid receptor 1 [8]): 0.45 nM; Emax (Cannabinoid receptor 2 [9]): 94%; Emax (Cannabinoid receptor 1 [10]): 110% |
| CC[C@@H](C)[C@@H](NC(=O)c1cn(CCCCCF)c2ccccc12)C(=O)OC | 26.8 nM | 121% | 33.5 nM | 107% | – |
| COC(=O)[C@H](Cc1ccccc1)NC(=O)c1cn(CCCCCF)c2ccccc12 | 7.41 nM | 108% | 4.63 nM | 99% | EC50 (Cannabinoid receptor 1 [3]; read-out: pEC50 (converted)): 4.57 nM |
| COC(=O)[C@H](NC(=O)c1cn(CCCCCF)c2ccccc12)C(C)(C)C | 56.5 nM | 129% | 16.4 nM | 96% | – |
| COC(=O)[C@@H](NC(=O)c1cn(CCCCCF)c2ccccc12)C(C)C | – | – | – | – | EC50 (Cannabinoid receptor 2 [7]): 4.6 nM; EC50 (Cannabinoid receptor 1 [8]): 2.4 nM; Emax (Cannabinoid receptor 2 [9]): 94%; Emax (Cannabinoid receptor 1 [10]): 107% |
| COC(=O)[C@H](NC(=O)c1cn(CCCCCF)c2ccccc12)[C@H](C)O | 93.4 nM | 105% | 2310 nM | 81% | – |
| COC(=O)[C@H](CC(C)C)NC(=O)c1cn(CCCCCF)c2ccccc12 | 7.16 nM | 136% | 25.5 nM | 99% | – |
| COC(=O)[C@H](CCCCN)NC(=O)c1cn(CCCCCF)c2ccccc12 | – | – | – | – | Emax (Cannabinoid receptor 1 [5]): 12%; Emax (Cannabinoid receptor 2 [6]): 4% |
| COC(=O)CNC(=O)c1cn(CCCCCF)c2ccccc12 | – | – | – | – | Emax (Cannabinoid receptor 1 [5]; filed as agonist): 40%; Emax (Cannabinoid receptor 2 [6]): 12% |
| COC(=O)[C@H](CCC(N)=O)NC(=O)c1cn(CCCCCF)c2ccccc12 | 199 nM | – | – | 90% | Emax (Cannabinoid receptor 1 [5]; filed as agonist): 94% |
| COC(=O)[C@H](NC(=O)c1cn(CCCCCF)c2ccccc12)C(C)C | 16.2 nM | 130% | 104 nM | 107% | – |
| COC(=O)[C@H]1CCCN1C(=O)c1cn(CCCCCF)c2ccccc12 | – | – | – | – | Emax (Cannabinoid receptor 1 [5]): 33%; Emax (Cannabinoid receptor 2 [6]): 7% |
| COC(=O)[C@H](C)NC(=O)c1cn(CCCCCF)c2ccccc12 | 59.5 nM | 108% | 78.8 nM | 86% | – |
| COC(=O)[C@H](CCSC)NC(=O)c1cn(CCCCCF)c2ccccc12 | 59.6 nM | 151% | 358 nM | 81% | – |
| COC(=O)[C@@H](Cc1c[nH]c2ccccc12)NC(=O)c1cn(CCCCCF)c2ccccc12 | – | – | – | – | Emax (Cannabinoid receptor 1 [5]): 9%; Emax (Cannabinoid receptor 2 [6]): 17% |
| COC(=O)[C@@H](CC(C)C)NC(=O)c1cn(CCCCCF)c2ccccc12 | 53.2 nM | 150% | 23.9 nM | 112% | – |
| COC(=O)[C@@H](Cc1ccc(O)cc1)NC(=O)c1cn(CCCCCF)c2ccccc12 | – | – | – | – | Emax (Cannabinoid receptor 1 [5]; filed as agonist): 57%; Emax (Cannabinoid receptor 2 [6]; filed as agonist): 40% |
| COC(=O)[C@@H](C)NC(=O)c1cn(CCCCCF)c2ccccc12 | 478 nM | 71% | – | 72% | – |
| COC(=O)[C@@H](NC(=O)c1cn(CCCCCF)c2ccccc12)[C@@H](C)O | 148 nM | 134% | 49 nM | 60% | – |
| COC(=O)[C@@H](CCSC)NC(=O)c1cn(CCCCCF)c2ccccc12 | 95 nM | 139% | 206 nM | 90% | – |
| COC(=O)[C@@H](Cc1ccccc1)NC(=O)c1cn(CCCCCF)c2ccccc12 | 586 nM | 107% | 441 nM | 57% | – |
| COC(=O)[C@@H](CCC(N)=O)NC(=O)c1cn(CCCCCF)c2ccccc12 | 445 nM | 116% | 3630 nM | 76% | – |
| COC(=O)[C@@H](CCCCN)NC(=O)c1cn(CCCCCF)c2ccccc12 | 1270 nM | – | – | 74% | Emax (Cannabinoid receptor 1 [5]; filed as agonist): 58% |
| COC(=O)[C@H](Cc1c[nH]c2ccccc12)NC(=O)c1cn(CCCCCF)c2ccccc12 | – | – | – | – | Emax (Cannabinoid receptor 1 [5]): 34%; Emax (Cannabinoid receptor 2 [6]): 37% |
| COC(=O)[C@@H]1CCCN1C(=O)c1cn(CCCCCF)c2ccccc12 | 13.4 nM | 106% | 20.7 nM | 86% | – |
